Patent publication US8313777B2, “Water-dispersible oral, parenteral, and topical formulations for poorly water soluble drugs using smart polymeric nanoparticles” (The Johns Hopkins University, priority 2006, dated 2012)

Key:
[1] = tested on: BxPC3 human pancreatic cancer cell line; test: In vitro cell viability (MTT) assay, BxPC3; assay type: cell-based; conditions: increasing dosages, 96 hours
From the text: In the illustrated example, NIPAAM/VP/AA polymeric nanoparticles in molar ratio of 60:20:20 were used for paclitaxel encapsulation. […] Also included as control in each condition were void polymeric nanoparticle equal to the amount required for encapsulating said dose of nanopaclitaxel (white bar) and solvent (dimethylsulfoxide [DMSO], blue bar) equal to the amount required for dissolving said dose of free paclitaxel. […] Thus, nano-encapsulation of the drug is not associated with loss of drug activity. […] All assays were performed in triplicate and error bars represent standard deviations.
FIG. 9 illustrates in vitro cell viability (MTT assay) performed using the water-soluble drug gemcitabine conjugated to the acrylic acid (AA) surface reactive functional group of polymeric nanoparticle. Unlike the poorly water drugs that are encapsulated within the nanoparticle, water soluble drugs like gemcitabine can be conjugated to the nanoparticle surface, rendering this compound amenable to oral delivery. Human pancreatic cancer cell line BxPC3 is incubated with increasing dosages of either free gemcitabine (black bar), nano-gemcitabine (white bar), void polymer (grey bar), or PBS solvent (patterned bar). UT=untreated. […] All assays were performed in triplicate and means and standard deviations are plotted. […]

[2] = Solubilization in water, visual (turbidity, floating particles vs transparent solution); assay type: physicochemical; conditions: equivalent amounts of free and nanoparticle-encapsulated drug
[3] = Blood levels of rapamycin 2 hours after oral delivery (HPLC); assay type: in vivo, C57/B6 wild type mice; conditions: 15 mg/kg rapamycin or equivalent, 2 hours post delivery
From the text: FIG. 10 illustrates blood levels of rapamycin following oral delivery of polymeric nanoparticles. Rapamycin was encapsulated in nanoparticles comprised of increasing order of acrylic acid (AA) percentage in the co-polymeric composition. The nanoparticles were either administered as is, or after surface PEGylation. Compared are: Control A (rapamycin suspended in water); rapamycin nanoparticle comprised of NIPAAM:VP:AA in a ratio of 60:30:10 (designated as NVA631); rapamycin nanoparticle comprised of NIPAAM:VP:AA in a ratio of 60:20:20 (designated as NVA622); rapamycin nanoparticle comprised of NIPAAM:VP:AA in a ratio of 60:10:30 (designated as NVA613); and rapamycin nanoparticle comprised of NIPAAM:MMA:AA in a ratio of 60:20:20 (designated as NMA622). The corresponding PEGylated nanoparticles (PEG-NVA-631, PEG-NVA-622, PEG-NVA-613, and PEG-NMA-622) encapsulating rapamycin are designated as shaded bars. […] Blood levels are measured by HPLC from samples obtained at 2 hours post oral delivery.
Rapamycin is a poorly water soluble drug that has low oral bioavailability. […] At 2 hours post oral administration, the mice were bled and rapamycin concentrations in the blood were determined by high performance liquid chromatography (HPLC). […]

SMILES	activity in cell viability assay, free vs nano-gemcitabine [1]	solubility in water (appearance of solution) [2]	blood level of rapamycin [3]
Nc1ccn([C@@H]2O[C@H](CO)[C@@H](O)C2(F)F)c(=O)n1 [free gemcitabine, gemcitabine]	comparable activity		
CC(=O)O[C@H]1C(=O)[C@@]2(C)[C@H]([C@H](OC(=O)c3ccccc3)[C@]3(O)C[C@H](OC(=O)[C@H](O)[C@@H](NC(=O)c4ccccc4)c4ccccc4)C(C)=C1C3(C)C)[C@]1(OC(C)=O)CO[C@@H]1C[C@@H]2O [free paclitaxel, paclitaxel]		essentially insoluble in water	
CO[C@H]1C[C@@H]2CC[C@@H](C)[C@@](O)(O2)C(=O)C(=O)N2CCCC[C@H]2C(=O)O[C@H]([C@H](C)C[C@@H]2CC[C@@H](O)[C@H](OC)C2)CC(=O)[C@H](C)/C=C(\C)[C@@H](O)[C@@H](OC)C(=O)[C@H](C)C[C@H](C)/C=C/C=C/C=C/1C [free rapamycin, rapamycin]		essentially insoluble in water	essentially undetectable
CO[C@H]1/C=C/O[C@@]2(C)Oc3c(C)c(O)c4c(O)c(c(/C=N/N5CCN(C)CC5)c(O)c4c3C2=O)NC(=O)/C(C)=C\C=C\[C@H](C)[C@H](O)[C@@H](C)[C@@H](O)[C@@H](C)[C@H](OC(C)=O)[C@@H]1C [free rifampicin, rifampicin]		essentially insoluble in water	
